From ChEMBL document CHEMBL3600353, “In Vitro Activity of Epigallocatechin Gallate and Quercetin Alone and in Combination versus Clinical Isolates of Methicillin-Resistant Staphylococcus aureus” (2015)
The source made the active and inactive calls. The calls are words filed in the database; no cut-off is given here.

How the values were obtained:
Staphylococcus aureus [1] = test: Antibacterial activity against methicillin-resistant Staphylococcus aureus isolate 6 by disk diffusion assay; format: functional
Staphylococcus aureus [2] = test: Antibacterial activity against vancomycin-intermediate resistant Staphylococcus aureus Mu50 after 24 hrs by checkerboard assay; format: functional; details: Mu50, 24 h
Staphylococcus aureus [3] = test: Antibacterial activity against methicillin-resistant Staphylococcus aureus isolate 9 after 24 hrs by checkerboard assay; format: functional; details: isolate 9, 24 h
Staphylococcus aureus [4] = test: Antibacterial activity against methicillin-resistant Staphylococcus aureus isolate 4 by disk diffusion assay; format: functional
Staphylococcus aureus [5] = test: Antibacterial activity against methicillin-resistant Staphylococcus aureus isolate 7 by disk diffusion assay; format: functional
Staphylococcus aureus [6] = test: Antibacterial activity against methicillin-resistant Staphylococcus aureus isolate 5 by disk diffusion assay; format: functional
Staphylococcus aureus [7] = test: Antibacterial activity against methicillin-resistant Staphylococcus aureus isolate 1 after 24 hrs by checkerboard assay; format: functional; details: isolate 1, 24 h
Staphylococcus aureus [8] = test: Antibacterial activity against methicillin-resistant Staphylococcus aureus NCTC 12493 at 1.69 mM after 4 hrs by time kill assay; format: functional, organism-based
Staphylococcus aureus [9] = test: Antibacterial activity against methicillin-resistant Staphylococcus aureus isolate 5 after 24 hrs by checkerboard assay; format: functional; details: isolate 5, 24 h
Staphylococcus aureus [10] = test: Antibacterial activity against methicillin-resistant Staphylococcus aureus isolate 8 by disk diffusion assay; format: functional
Staphylococcus aureus [11] = test: Antibacterial activity against methicillin-resistant Staphylococcus aureus isolate 2 after 24 hrs by checkerboard assay; format: functional; details: isolate 2, 24 h
Staphylococcus aureus [12] = test: Antibacterial activity against methicillin-resistant Staphylococcus aureus isolate 6 after 24 hrs by checkerboard assay; format: functional; details: isolate 6, 24 h
Staphylococcus aureus [13] = test: Antibacterial activity against methicillin-resistant Staphylococcus aureus isolate 7 after 24 hrs by checkerboard assay; format: functional; details: isolate 7, 24 h
Staphylococcus aureus [14] = test: Antibacterial activity against methicillin-sensitive Staphylococcus aureus ATCC 25923 at 1.69 mM after 5 hrs by time kill assay; format: functional, organism-based
Staphylococcus aureus [15] = test: Antibacterial activity against methicillin-resistant Staphylococcus aureus NCTC 12493 at 1.69 mM after 5 hrs by time kill assay; format: functional, organism-based
Staphylococcus aureus [16] = test: Antibacterial activity against methicillin-resistant Staphylococcus aureus isolate 4 after 24 hrs by checkerboard assay; format: functional; details: isolate 4, 24 h
Staphylococcus aureus [17] = test: Antibacterial activity against methicillin-resistant Staphylococcus aureus isolate 1 by disk diffusion assay; format: functional
Staphylococcus aureus [18] = test: Antibacterial activity against methicillin-resistant Staphylococcus aureus isolate 3 after 24 hrs by checkerboard assay; format: functional; details: isolate 3, 24 h
Staphylococcus aureus [19] = test: Antibacterial activity against methicillin-resistant Staphylococcus aureus isolate 3 by disk diffusion assay; format: functional
Staphylococcus aureus [20] = test: Antibacterial activity against methicillin-resistant Staphylococcus aureus isolate 9 by disk diffusion assay; format: functional
Staphylococcus aureus [21] = test: Antibacterial activity against methicillin-resistant Staphylococcus aureus NCTC 12493 assessed as log reduction of bacterial growth after 9 hrs; format: functional
Staphylococcus aureus [22] = test: Antibacterial activity against methicillin-sensitive Staphylococcus aureus ATCC 25923 at 1.69 mM after 4 hrs by time kill assay; format: functional, organism-based
Staphylococcus aureus [23] = test: Antibacterial activity against methicillin-resistant Staphylococcus aureus isolate 8 after 24 hrs by checkerboard assay; format: functional; details: isolate 8, 24 h
Staphylococcus aureus [24] = test: Antibacterial activity against methicillin-resistant Staphylococcus aureus NCTC 12493 after 24 hrs by checkerboard assay; format: functional; details: NCTC 12493, 24 h
Staphylococcus aureus [25] = test: Antibacterial activity against methicillin-resistant Staphylococcus aureus isolate 2 by disk diffusion assay; format: functional
Staphylococcus aureus [26] = test: Antibacterial activity against Staphylococcus aureus ATCC 25923 after 24 hrs by checkerboard assay; format: functional; details: ATCC 25923, 24 h
Staphylococcus aureus [27] = test: Antibacterial activity against vancomycin-intermediate resistant Staphylococcus aureus Mu50 at 1.69 mM after 4 hrs by time kill assay; format: functional, organism-based

## O=c1c(O)c(-c2ccc(O)c(O)c2)oc2cc(O)cc(O)c12 [QUERCETIN]
Staphylococcus aureus [1]
  inhibition zone (IZ): inactive
Staphylococcus aureus [2]
  MIC: 1690 µM
Staphylococcus aureus [3]
  MIC: 1690 µM
Staphylococcus aureus [4]
  inhibition zone (IZ): inactive
Staphylococcus aureus [5]
  inhibition zone (IZ): inactive
Staphylococcus aureus [6]
  inhibition zone (IZ): inactive
Staphylococcus aureus [7]
  MIC: 1690 µM
Staphylococcus aureus [8]
  Activity: Active
Staphylococcus aureus [9]
  MIC: 1690 µM
Staphylococcus aureus [10]
  inhibition zone (IZ): inactive
Staphylococcus aureus [11]
  MIC: 1690 µM
Staphylococcus aureus [12]
  MIC: 1690 µM
Staphylococcus aureus [13]
  MIC: 1690 µM
Staphylococcus aureus [14]
  Activity: inactive
Staphylococcus aureus [15]
  Activity: inactive
Staphylococcus aureus [16]
  MIC: 1690 µM
Staphylococcus aureus [17]
  inhibition zone (IZ): 8 mm
Staphylococcus aureus [18]
  MIC: 1690 µM
Staphylococcus aureus [19]
  inhibition zone (IZ): inactive
Staphylococcus aureus [20]
  inhibition zone (IZ): inactive
Staphylococcus aureus [21]
  FC: 1
Staphylococcus aureus [22]
  Activity: Active
Staphylococcus aureus [23]
  MIC: 1690 µM
Staphylococcus aureus [24]
  MIC: 850 µM
Staphylococcus aureus [25]
  inhibition zone (IZ): inactive
Staphylococcus aureus [26]
  MIC: 1690 µM
Staphylococcus aureus [27]
  Activity: inactive
